# Entries after “also recorded” stand apart in the source; their conditions may differ.
# Columns and labels:
# macrophages [1] = test: Macrophage cytokine production under immunosuppressive or proinflammatory stimulation with cancer cell ligation; assay type: cell-based
# From the text: FIGS. 6A-6D depict that the inhibition of SHP-1 promotes anti-tumor effects or pro-tumor effects under different circumstances. FIG. 6A depicts that intratumoral macrophages upregulate expression of iRs (Pir-B, Siglec E, F and G, and SIRPα) along with tumor progression to late-stage large sizes. KPC pancreatic tumors of small sizes (<150 mm^3) and those grown to larger sizes (>800 mm^3) were dissociated to single cells, followed by flow cytometry analyses for cell surface protein expression on macrophages (gated F4/80+). FIG. 6B depicts that the inhibition of SHP-1 alone promotes TME immunosuppression. Excised MC38 solid tumor cubes were treated with SHP-1 inhibitor TPI-1 (100 nM) or vehicle (DMSO) in a cell culture setting. After 24 h, tumor secreting cytokines into the culture medium were assayed by ELISA.
# The SHP-1 activity in non-therapeutic solid tumors is low (see FIGS. 7A-7D), and this low activity inhibits immunosuppressive receptor signaling. […] In parallel experiments, the same SHP-1 inhibitors augmented macrophage responses to the M1 stimuli IFNγ and LPS and enhanced proinflammatory cytokine production.
# [2] = test system: MC38 colorectal carcinoma; test: αTLR-induced inflammation in MC38 tumor-bearing mice with or without TPI-1; assay type: in vivo, C57BL6 mice
# From the text: FIGS. 17A-17C depict inhibition of SHP-1 (iShp1) abrogates tumor-imposed immune suppression under pro-inflammatory challenges. FIG. 17A depicts neutrophil infiltration in different organs measured at various time point following αTLR challenge. FIG. 17B depicts neutrophil infiltration in tumor tissues in mice treated with αTLR plus TPI-1. FIG. 17C depicts the phenotype of intratumoral macrophages.
# MC38 colorectal carcinoma was established (via subcutaneous administration) in syngeneic C57BL6 mice. After tumor sizes reached more than 200 mm^3, the tumor-bearing mice were induced systemic inflammatory condition by TLR agonists (αTLR, CpG/PolyIC/R848, each 25 μg) administrated via subcutaneous administration at the location distal from MC38 tumor. A group of mice were concurrently administrated with TPI-1 (1 mg/kg) via subcutaneous administration to achieve systemic SHP-1 inhibition.
# KPC pancreatic tumor [3] = test: Cytokines, antigen presentation and chemokines in KPC tumor after treatment; assay type: in vivo, murine
# From the text: FIGS. 7A-7F depict that the inhibition of SHP-1 unleashes proinflammatory response and antigen presentation in solid tumor upon therapies. […] Low PTP/SHP-1 activity was found in untreated, homeostatic tumor. […] Similar data were obtained by studying colorectal carcinoma MC38.
# [4] = test system: THP-1 leukemia cells and HT29 colon cancer cells; test: Phagocytosis by human monocytes-derived macrophages; assay type: cell-based; settings: 1 μg/ml
# Experimental: (§1) FIGS. 2A-2G depict that the inhibition of SHP-1 enhances macrophage proinflammatory response, antigen presentation and phagocytosis in a tumor milieu. FIG. 2A and FIG. 2B depict that SHP-1 activity in macrophages is triggered by proinflammatory stimulation and the extracellular cancer cell ligation (“touching”) of macrophages (green bar in FIG. 2A). […] The SHP-2 inhibitor SHP099 (1 μg/ml) was used in assays. FIG. 2C depicts the inhibition of SHP-1 by TPI-1 dose-dependently recovers IFNγ/LPS-induced activation of STAT1 (p-STAT1) and Erk1/2 (p-Erk1/2) de-activated by SHP-1 (red line). FIG. 2D and FIG. 2E depict that the inhibition of SHP-1 in macrophages by TPI-1 enhances production of proinflammatory cytokines (FIG. 2D) and expression of immunogenic antigen presentation machinery (FIG. 2E) by IFNγ/LPS in a tumor milieu. […] The SHP-1 and SHP-2 inhibitors TPI-1 and SHP099, respectively, was used at 1 μg/ml in assays.
# KPC pancreatic tumor [5] = test: Cytokines secreted by KPC tumor pieces treated with TLR agonists with or without TPI-1; set-up: species or system mice; settings: TPI-1 0.4 μM with TLR agonists 1 μg/ml, 18 h
# Experimental: KPC pancreatic tumor removed from mice were cut into small pieces and treated with 5 different TLR agonists (R848, 3M-852A, Motolimod, Bropirimine or Vesatolimod; 1 μg/ml each) without or with SHP-1 inhibitor TPI-1 (0.4 μM). After 18 h, cytokines secreted into the culture medium were assayed.
# Study-3: adverse effects = assay type: in vivo, mice; settings: TPI-1 with RT and αPD-L1
# Experimental: FIGS. 13A-13E depict pulse-intermittent SHP-1 inhibition (iSHP-1) combination with RT and αPD-L1 treating pancreatic cancer and lung cancer. FIG. 13A depicts experimental schemes. […] Concomitantly, the tumor at the right flank was treated with 8Gy X-ray radiation (RT). After two days of intermittent period, mice on day 4 were treated with the 2nd cycle TPI-1 (i.p.) of the same dose while RT reduced to 4Gy applied to the right flank tumor. The 3rd cycle (day 7) iSHP-1 combination with RT reduced to 2Gy. Anti-PD-L1 Ab (100 μg, i.p.) was given a day following TPI-1 plus RT. FIG. 13B depicts luminescent image tracing KPC-luc and LLC-luc tumor changes post treatment. FIG. 13C depicts record of tumor volume changes and animal survival up to post-treatment 45 days.
# Modalities & Dosing Strategy: i) iSHP-1—TPI-1, 3 or 5 mg/kg, i.p., 1× every 3 days. ii) Tumor focal RT: 8Gy-4Gy-2Gy, given to right flank simultaneously with iSHP-1. iii) αPD-L1: 100 μg, i.p., given a day after iSHP-1 plus RT
# macrophages [6] = test: Macrophage cytokine production and antigen presentation machinery in a tumor milieu; assay type: cell-based; settings: IFNγ/LPS
# Experimental: as §1
# Macrophages with high SHP-1 activity in a tumor milieu diminish production of proinflammatory cytokines but produce high IL-10 (see FIG. 2D, blue bar) under stimulation of IFNγ/LPS. This reinforcement of immunosuppression was reversed by SHP-1 inhibition. Additionally, inhibition of SHP-1 also enabled proinflammatory-activated macrophages to overcome the “don't-eat-me” barrier and initiate potent phagocytosis towards cancer cells, irrespective of cancer cells expressing of CD47 (FIG. 2F and FIG. 2G).
# [7] = with αTLR or RT, single dose TPI-1
# [8] = with αTLR or RT, single dose TPI-1, 6-18 h
smiles,measurement,setting,value
O=C1C=CC(=O)C(c2cc(Cl)ccc2Cl)=C1 [TPI-1],macrophage production of IL-12 and TNFα,macrophages [1]; IFNγ and LPS,dose-dependently augmented macrophage proinflammatory response with increased IL-12 and TNFα
same,macrophage production of IL-10 and TGFβ,macrophages [1]; IL-4/13 or IL-10 stimulation,dose-dependently augmented
same,TNFα and IL12 expression of intratumoral macrophages,[2]; TPI-1 1 mg/kg s.c. with αTLR,increased TNFα and IL12 expression
same,neutrophil infiltration in tumor,"[2]; TPI-1 1 mg/kg s.c. with αTLR (CpG/PolyIC/R848, each 25 μg), 1 mg/kg",enabled neutrophil infiltration upon αTLR; also recorded: increased neutrophil infiltration in tumor tissues
same,proinflammatory cytokines in tumor,"KPC pancreatic tumor [3]; with TLR agonists or RT, single dose TPI-1, 6-18 h post treatment",high expression of proinflammatory cytokines
same,TGFRs and CCL2 in TME,KPC pancreatic tumor [3]; [7],reduced
same,"chemokines that attract neutrophils, NK and T cells",KPC pancreatic tumor [3]; [7],increased in the TME
same,IL-10 and TGFβ in tumor,KPC pancreatic tumor [3]; [8],abating IL-10 and TGFβ
same,antigen presentation markers of intratumoral macrophages,KPC pancreatic tumor [3]; [8],"elevated cell surface markers MHC-I, MHC-II, and costimulatory molecules CD80, CD86, CD40, OX40L"
same,phagocytosis of cancer cells,[4],promotes proinflammatory-activated macrophages for phagocytosis of cancer cells
same,"cytokines secreted, with SHP-1 inhibitor",KPC pancreatic tumor [5],induced high production of proinflammatory cytokine s while suppressing production of IL-10 and TGFβ
same,lung inflammation,Study-3: adverse effects,nor did it incur lung inflammation
same,"splenomegaly, body weight loss, anemia",Study-3: adverse effects,"did not cause splenomegaly, body weight loss or anemia"
same,expression of immunogenic antigen presentation machinery,macrophages [6],elevated macrophage production of proinflammatory cytokines and expression of immunogenic antigen presentation machinery
same,macrophage proinflammatory cytokine production,macrophages [6],elevated macrophage production of proinflammatory cytokines
same,reinforcement of immunosuppression (IL-10),macrophages [6],reversed
